From patent US10808009B2, “Peptide conjugates” (BIONIZ, LLC, priority 2011, dated 2020)
No end group written: not given here.

Legend:
[1] = system: γc-cytokines; test: Target cytokine spectrum within the γc-family (summary statements); assay type: cell-based
[2] = target: T1, IL-4 (Mus musculus, UniProt P07750); test: PT-18β proliferation assay (WST-1), IL-4; assay type: cell-based; conditions: PT-18β cells, 1 nM IL-4, BNZ-γ from HEK293T supernatant 1:20 or 1:50, 2 days
T1 sequence (P07750 21-140): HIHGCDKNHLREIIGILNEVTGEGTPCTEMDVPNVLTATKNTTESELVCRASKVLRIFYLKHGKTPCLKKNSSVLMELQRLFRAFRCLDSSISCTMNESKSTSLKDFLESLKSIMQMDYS
Excerpt: (§1) For each of the six γc-cytokines, indicator cell lines: CTLL-2, a murine CD8 T cells line available from American Type Culture Collection, and PT-18, a murine mast cell line and its subclone PT-183, is transfected with human IL-2Rβ gene to make the cells responsive to IL-2 and IL-15 (Tagaya et al., 1996, EMBO J. 15:4928-39), and is used to quantitatively determine the γc-cytokine's growth-promoting activity (See Current protocols in Immunology from Wiley and Sons for a methodological reference). […] Once the appropriate doses of the cytokine that yield the 50% and 95% maximum response from the indicator cell line is determined, various concentrations (ranging from 1 pM to 10 μM) of the purified or synthesized custom derivative peptide is added to each well containing the cytokine and indicator cells. The reduction in light absorbance at 450 nm is used as an indicator of inhibition of cytokine-stimulated cellular proliferation. Typically, the cells are stimulated by the cytokines such that the absorbance of the well containing indicator cell line and the cytokine is between 2.0 and 3.0, which is reduced to a range of 0.1 to 0.5 by the addition of inhibitory peptides.
(§2) The growth-responses of the cells were determined 2 days after the introduction of BNZ-γ peptide and the cytokine using the WST-1 assay. […]

[3] = target: T2, IL-9 (Mus musculus, UniProt P15247); test: PT-18β proliferation assay (WST-1), IL-9; assay type: cell-based; conditions: PT-18β cells, 1 nM IL-9, BNZ-γ from HEK293T supernatant 1:20 or 1:50, 2 days
T2 sequence (P15247 19-144): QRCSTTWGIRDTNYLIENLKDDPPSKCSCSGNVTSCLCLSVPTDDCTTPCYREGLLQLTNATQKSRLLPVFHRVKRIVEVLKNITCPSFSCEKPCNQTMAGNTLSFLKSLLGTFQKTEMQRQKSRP
Excerpt: as §1, §2

[4] = target: T3, IL-3 (Mus musculus, UniProt P01586); test: PT-18β proliferation assay (WST-1), IL-3 (non γc-cytokine control); assay type: cell-based; conditions: PT-18β cells, 1 nM IL-3, BNZ-γ from HEK293T supernatant 1:20 or 1:50, 2 days
T3 sequence (P01586 27-166): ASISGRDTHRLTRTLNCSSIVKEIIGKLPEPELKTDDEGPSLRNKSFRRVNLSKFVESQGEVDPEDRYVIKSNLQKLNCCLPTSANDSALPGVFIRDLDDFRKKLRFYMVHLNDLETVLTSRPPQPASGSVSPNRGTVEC
Excerpt: as §1, §2

[5] = target: IL-15 (Homo sapiens, UniProt P40933); test: PT-18β proliferation assay (WST-1), IL-15; assay type: cell-based; conditions: PT-18β cells, 1 nM IL-15, BNZ-γ from HEK293T supernatant 1:20 or 1:50, 2 days
Excerpt: as §1, §2

[6] = system: IL-15-mediated tyrosine-phosphorylation of STAT5; test: IL-15-mediated tyrosine phosphorylation of STAT5 in PT-18β cells (immunoblot); assay type: cell-based, murine; conditions: PT-18β cells stimulated by IL-15, anti-phospho-STAT5 immunoblot
Excerpt: In addition to stimulating cellular proliferation, binding of the γc-cytokines to their receptors causes a diverse array of intracellular events. (Rochman et al. 2009 Nat. Rev. Immunol. 9:480-90, Pesu et al. 2005 Immunol. Rev. 203:127-142.) Immediately after the cytokine binds to its receptor, a tyrosine kinase called Jak3 (Janus-kinase 3) is recruited to the receptor at the plasma membrane. This kinase phosphorylates the tyrosine residues of multiple proteins including the γc-subunit, STAT5 (Signal Transducer and Activator of Transcription 5) and subunits of the PI3 (Phosphatidylinositol 3) kinase. Among these, the phosphorylation of STAT5 has been implicated in many studies as being linked to the proliferation of cells initiated by the γc-cytokine. (Reviewed in Hennighausen and Robinson, 2008 Genes Dev. 22:711-21.) In accordance with these published data, whether or not the BNZ-γ peptide inhibits the tyrosine phosphorylation of STAT5 molecule in PT-18β cells stimulated by IL-15 was examined (results shown in FIG. 3C).
PT-18β cells were stimulated by IL-15 in the presence or absence of BNZ-γ peptide. Cytoplasmic proteins were extracted from the cells according to a conventional method as described in Tagaya et al. 1996 EMBO J. 15:4928-39. […]

[7] = system: T-cells in HAM/TSP culture
Protocol: Proliferation assays were performed on HAM/TSP patient blood samples with and without the addition of BNZ-γ. These assays evaluated the ability of BNZ-γ to block the function of cytokines, such as IL-2 and IL-15, present in the ex vivo HAM/TSP patient blood culture and prevent spontaneous T-cell proliferation in these samples.
In an ex vivo spontaneous T-cell proliferation assay, PBMC from HAM/TSP patient was cultured at 1×10(6) cells per well of a 96 well plate in RPMI-10% FCS. Increasing concentrations of BNZ-γ peptide were added to each well. […] The cells were incubated in a 37° C. CO2 incubator for 3, 4, and 6 days. The amount of 1 uCi of ^3H-thymidine was added to the cells. After an additional 6 hour incubation, cells were harvested their proliferation rate was measured.
Other immunological markers were additionally measured in this assay. […] The population of CD4+CD25+ cells, a marker of T-cell activation, as well as Ki67 staining, a marker of T-cell proliferation, was monitored in a flow cytometry assay.

[8] = system: IL-2; test: PT-18 proliferation assay, IL-2 (FIG. 3A legend); assay type: cell-based
Protocol: The growth-responses of the cells were determined 2 days after the introduction of BNZ-γ peptide and the cytokine using the WST-1 assay. […] Cellular proliferation stimulated by IL-4, another γc-cytokine, was not affected by the by the addition of BNZ-γ peptide. Results for IL-3, IL-9, IL-15, and IL-4 are shown at FIG. 3A.

[9] = system: IL-6; test: T1165 proliferation in the presence of IL-6 (Example 25); assay type: cell-based, human or mouse
Protocol: The BNZ130-1 polypeptide as presented in Table 2, above, is tested for its activity in inhibiting IL-6 activity. T1165 cells that are dependent on human or mouse IL-6 for their growth in vitro are selected. The cell line is cultured in the absence of IL-6, In the presence of IL-6, in the presence of BNZ130-1, and in the presence of IL-6 and BNZ130-1.

[10] = HAM/TSP peripheral blood ex vivo culture, flow cytometry

Sequence of IL-15 (P40933 49-162): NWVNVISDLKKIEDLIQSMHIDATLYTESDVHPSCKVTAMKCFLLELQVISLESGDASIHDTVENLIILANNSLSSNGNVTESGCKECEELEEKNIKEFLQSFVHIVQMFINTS

Row | Substance | γc-cytokines not inhibited [1] | γc-cytokines inhibited ([1]; BNZ132-2 and BNZ132-3 data not shown) | cellular proliferation stimulated by IL-4 [2] | growth-promoting activity of IL-9 [3] | growth-promoting activity of IL-3 (non γc-cytokine) [4] | growth-promoting activity of IL-15 [5] | tyrosine phosphorylation of STAT5 [6] | percent of live cells by Guava staining [7] | concentration at which spontaneous proliferation of T-cells is inhibited ([7]; HAM/TSP patient PBMC, 3, 4 and 6 days, 3H-thymidine) | population of CD4+CD25+ cells [7, 10] | population of CD4+Ki67 cells [7, 10] | IL-2 activity in PT-18 proliferation assay [8] | effect on T1165 survival ([9]; Example 25, with or without IL-6) | antagonistic activity on T1165 proliferation in the presence of IL-6 ([9]; Example 25, written in present tense)
1 | I-K-E-F-L-Q-R-F-I-H-I-V-Q-S-I-I-N-T-S (IKEFLQRFIHIVQSIINTS) [BNZ-γ] | IL-4, IL-7 and IL-21 | IL-2, IL-15 and IL-9 | not affected | significantly (p<0.01 Student's T test) reduced | not inhibited | significantly (p<0.01 Student's T test) reduced | markedly reduced | not impacted | about 1 ug/ml | diminished | reduced | inhibition |  | 
2 | LTHLIERSSRAVLQSLLRASRQ [BNZ130-1] |  |  |  |  |  |  |  |  |  |  |  |  | does not affect | dose-dependent antagonistic activity
